Measurements taken from patent US8716473B2, “Substituted benzotriazines and quinoxalines as inhibitors of P7OS6 kinase” (Sentinel Oncology Limited, priority 2009, dated 2014).
Counter-ions that a name gives are not always drawn.

Assays:
p70S6K (h) = p70S6K (h) (Homo sapiens, UniProt P23443); experiment: Determination of p70S6 inhibitory activity (radiometric 33P-ATP filter assay); format: biochemical; details: 40 min at room temperature, read-out: IC50 against P70S6 kinase
Method: The ability of compounds of the invention to inhibit P70S6 kinase was determined using the protocol below.
• 20 mM MOPS, 1 mM EDTA, 0.01% Brij-35, 5% Glycerol, 0.1% b-mercaptoethanol, 1 mg/mL BSA Method: • p70S6K (h)
In a final reaction volume of 25 μL, p70S6K (h) (5-10 mU) is incubated with 8 mM MOPS pH 7.0, 0.2 mM EDTA, 100 μM KKRNRTLTV, 10 mM Mg acetate and [γ-33P-ATP] (specific activity approx. 500 cpm/pmol, concentration as required). The reaction is initiated by the addition of the MgATP mix. After incubation for 40 minutes at room temperature, the reaction is stopped by the addition of 5 μL of a 3% phosphoric acid solution. 10 μL of the reaction mixture is then spotted onto a P30 filtermat and washed three times for 5 minutes in 75 mM phosphoric acid and once in methanol prior to drying and scintillation counting.

[1] = test system: phosphorylation of S6 Ser235/236 in MCF-7 cells; experiment: Inhibition of P70S6K activity in whole cells: phospho-S6 ELISA in MCF-7 cells; format: cell-based; details: Homo sapiens, MCF7, 2 h incubation, 1% FBS
Method: The following assay provides IC50 values for inhibition of P70S6K activity in a whole cell assay by determining effects on the phosphorylation of S6^Ser235/236 in MCF-7 cells by ELISA.
The following protocol was used: • 1) MCF-7 cells were seeded in 96-well plates at a density of 7×10^3 cells per well and allowed to adhere for 6 h in media containing 10% FBS. • 2) The full serum media was replaced and cells incubated overnight in media containing 1% FBS, prior to addition of test compounds. • 3) Test compounds were prepared from 10 mM or 5 mM (BEZ-235) DMSO stocks to give final concentration ranges as indicated on graphs. DMSO was constant at a final concentration of 1%. • 4) Test compounds were incubated with cells in duplicate for 2 h at 37° C./5% CO2 in a humidified atmosphere. • 5) The media was removed and cells were lysed by freeze-thawing in cell lysis buffer. • 6) Detection of phosphorylated S6Ser235/236 was then carried out using a PathScan ELISA kit (Cell Signaling Technology #7205). • 7) Lysates were diluted 1:1 with sample diluent before being applied to wells coated with an antibody against phosphorylated-S6 protein. • 8) The ELISA was then performed as stated in the manufacturers' instructions. • 9) The raw data were normalised to control values and analysed using a 4-parameter logistic equation in GraphPad Prism.

MCF-7 cells = experiment: MCF-7 proliferation assay (Alamar blue); format: cell-based; details: Homo sapiens, MCF7, 72 h incubation, read-out: IC50 for inhibition of cell growth
Method: The following assay was used to determine the ability of test compounds to inhibit cell growth.
The following protocol was used: • 1) MCF-7 cells were seeded in 96-well plates at 5000 cells per well and allowed to adhere overnight prior to addition of compound or vehicle control. • 2) Test compounds were prepared from 10 mM DMSO stocks to give a final concentration range of 100 μM, 30 μM, 10 μM, 3 μM, 1 μM, 0.3 μM, 0.1 μM, 0.03 μM, 0.01 μM and vehicle control. The DMSO content was constant at 1%. • 3) Test compounds were incubated with the cells for 72 h at 37° C. 5% CO2 in a humidified atmosphere. • 4) Alamar blue 10% (v/v) was then added and incubated for a further 6 h, and fluorescent product detected using the BMG FLUOstar plate reader. • 5) Data were analysed using a 4-parameter logistic equation in Graph Pad Prism.

p70S6K (h), sequence (P23443 whole entry): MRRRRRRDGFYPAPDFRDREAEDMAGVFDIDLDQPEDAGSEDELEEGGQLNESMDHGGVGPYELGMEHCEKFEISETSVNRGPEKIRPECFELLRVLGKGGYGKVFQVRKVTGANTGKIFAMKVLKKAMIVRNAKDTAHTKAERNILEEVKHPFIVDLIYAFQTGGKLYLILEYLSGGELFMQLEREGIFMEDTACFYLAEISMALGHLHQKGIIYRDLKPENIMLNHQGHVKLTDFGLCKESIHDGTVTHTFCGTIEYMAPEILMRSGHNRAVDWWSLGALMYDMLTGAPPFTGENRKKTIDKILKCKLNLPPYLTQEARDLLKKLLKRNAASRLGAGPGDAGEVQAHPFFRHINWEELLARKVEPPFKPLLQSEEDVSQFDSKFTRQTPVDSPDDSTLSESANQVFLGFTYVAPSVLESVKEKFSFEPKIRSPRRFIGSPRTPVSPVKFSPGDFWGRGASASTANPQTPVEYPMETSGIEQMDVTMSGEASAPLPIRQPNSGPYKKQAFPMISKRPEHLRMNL

| IC50 (p70S6K (h)) [µM] | IC50 [1] [µM] | IC50 (MCF-7 cells) [µM] | SMILES |
| --- | --- | --- | --- |
| < 0.1 | < 1 | < 10 | Cc1cccc(CNc2cnc3cc(-c4cn[nH]c4)ccc3n2)c1 [Example 41, (3-Methyl-benzyl)-[6-(1H-pyrazol-4-yl)-quinoxalin-2-yl]-amine] |
| < 1 | – | < 20 | Fc1ccccc1CNc1cnc2cc(-c3cn[nH]c3)ccc2n1 [Example 13, (2-Fluoro-benzyl)-[6-(1H-pyrazol-4-yl)-quinoxalin-2-yl]-amine hydrochloride] |
| < 0.1 | < 5 | < 20 | Clc1ccc(CNc2cnc3cc(-c4cn[nH]c4)ccc3n2)cc1 [Example 8, (4-Chloro-benzyl)-[6-(1H-pyrazol-4-yl)-quinoxalin-2-yl]-amine] |
| < 0.1 | – | < 10 | c1cc(CNc2cnc3cc(-c4cn[nH]c4)ccc3n2)cs1 [Example 38, [6-(1H-Pyrazol-4-yl)-quinoxalin-2-yl]-thiophen-3-ylmethyl-amine] |
| < 0.1 | < 1 | < 10 | COc1cccc(CNc2cnc3cc(-c4cn[nH]c4)ccc3n2)c1 [Example 18, (3-Methoxy-benzyl)-[6-(1H-pyrazol-4-yl)-quinoxalin-2-yl]-amine] |
| < 5 | – | < 20 | CN(C)CCOc1cccc(CNc2cnc3cc(-c4cn[nH]c4)ccc3n2)c1 [Example 31, [3-(2-Dimethylamino-ethoxy)-benzyl]-[6-(1H-pyrazol-4-yl)-quinoxalin-2-yl]-amine hydrochloride] |
| < 0.1 | < 5 | < 50 | CN(Cc1ccc(F)cc1)c1cnc2cc(-c3cn[nH]c3)ccc2n1 [Example 21, (4-Fluoro-benzyl)-methyl-[6-(1H-pyrazol-4-yl)-quinoxalin-2-yl]-amine] |
| < 0.1 | < 5 | < 50 | Fc1ccc(CNc2cnc3cc(-c4cn[nH]c4)ccc3n2)cc1F [Example 32, (3,4-Difluoro-benzyl)-[6-(1H-pyrazol-4-yl)-quinoxalin-2-yl]-amine] |
| < 5 | < 5 | < 20 | c1cc(CNc2cnc3cc(-c4cn[nH]c4)ccc3n2)cc(N2CCOCC2)c1 [Example 7, (3-Morpholin-4-yl-benzyl)-[6-(1H-pyrazol-4-yl)-quinoxalin-2-yl]-amine hydrochloride] |
| < 0.1 | < 5 | < 10 | Fc1ccc(CNc2cnc3cc(-c4cn[nH]c4)ccc3n2)cc1 [Example 11, (4-Fluoro-benzyl)-[6-(1H-pyrazol-4-yl)-quinoxalin-2-yl]-amine hydrochloride] |
| < 0.1 | < 1 | < 10 | CN(Cc1cccc(F)c1)c1cnc2cc(-c3cn[nH]c3)ccc2n1 [Example 28, (3-Fluoro-benzyl)-methyl-[6-(1H-pyrazol-4-yl)-quinoxalin-2-yl]-amine] |
| < 1 | < 5 | < 10 | COc1ccc(CNc2cnc3cc(-c4cn[nH]c4)ccc3n2)cc1 [Example 17, (4-Methoxy-benzyl)-[6-(1H-pyrazol-4-yl)-quinoxalin-2-yl]-amine] |
| < 0.1 | < 1 | < 10 | COc1cccc([C@@H](C)Nc2cnc3cc(-c4cn[nH]c4)ccc3n2)c1 [Example 50, [(R)-1-(3-Methoxy-phenyl)-ethyl]-[6-(1H-pyrazol-4-yl)-quinoxalin-2-yl]-amine hydrochloride] |
| < 0.1 | < 1 | < 20 | C[C@@H](Nc1cnc2cc(-c3cn[nH]c3)ccc2n1)c1ccccc1 [Example 33, ((R)-1-Phenyl-ethyl)-[6-(1H-pyrazol-4-yl)-quinoxalin-2-yl]-amine] |
| < 0.1 | < 1 | < 20 | Clc1cccc(CNc2cnc3cc(-c4cn[nH]c4)ccc3n2)c1 [Example 9, (3-Chloro-benzyl)-[6-(1H-pyrazol-4-yl)-quinoxalin-2-yl]-amine] |
| < 0.1 | < 1 | < 50 | COc1cccc(CN(C)c2cnc3cc(-c4cn[nH]c4)ccc3n2)c1 [Example 27, (3-Methoxy-benzyl)-methyl-[6-(1H-pyrazol-4-yl)-quinoxalin-2-yl]-amine] |
| < 0.1 | < 5 | < 10 | Fc1cccc(CNc2cnc3cc(-c4cn[nH]c4)ccc3n2)c1 [Example 12, (3-Fluoro-benzyl)-[6-(1H-pyrazol-4-yl)-quinoxalin-2-yl]-amine hydrochloride] |
| < 0.1 | < 5 | < 10 | c1ccc(CNc2cnc3cc(-c4cn[nH]c4)ccc3n2)cc1 [Example 1, Benzyl-[6-(1H-pyrazol-4-yl)-quinoxalin-2-yl]-amine] |
| < 0.1 | < 5 | < 20 | c1ccc(CCNc2cnc3cc(-c4cn[nH]c4)ccc3n2)cc1 [Example 25, Phenethyl-[6-(1H-pyrazol-4-yl)-quinoxalin-2-yl]-amine hydrochloride] |
| < 5 | < 20 | – | C[C@H](Nc1cnc2cc(-c3cn[nH]c3)ccc2n1)c1cccc(F)c1 [Example 59, [(S)-1-(3-Fluoro-phenyl)-ethyl]-[6-(1H-pyrazol-4-yl)-quinoxalin-2-yl]-amine hydrochloride] |
| < 0.1 | < 1 | – | C[C@@H](Nc1cnc2cc(-c3cn[nH]c3)ccc2n1)c1cccc(Cl)c1 [Example 55, [(R)-1-(3-Chloro-phenyl)-ethyl]-[6-(1H-pyrazol-4-yl)-quinoxalin-2-yl]-amine hydrochloride] |
| < 1 | < 20 | – | C[C@@H](c1cccc(F)c1)N(C)c1cnc2cc(-c3cn[nH]c3)ccc2n1 [Example 60, [(S)-1-(3-Fluoro-phenyl)-ethyl]-methyl-[6-(1H-pyrazol-4-yl)-quinoxalin-2-yl]-amine] |
| < 0.1 | – | < 50 | CCN(Cc1ccccc1)c1cnc2cc(-c3cn[nH]c3)ccc2n1 [Example 26, Benzyl-ethyl-[6-(1H-pyrazol-4-yl)-quinoxalin-2-yl]-amine] |
| < 1 | < 5 | < 20 | CN1CCN(c2cccc(CNc3cnc4cc(-c5cn[nH]c5)ccc4n3)c2)CC1 [Example 6, [3-(4-Methyl-piperazin-1-yl)-benzyl]-[6-(1H-pyrazol-4-yl)-quinoxalin-2-yl]-amine hydrochloride] |
| < 0.1 | < 5 | < 20 | CN(Cc1ccccc1)c1cnc2cc(-c3cn[nH]c3)ccc2n1 [Example 2, Benzyl-methyl-[6-(1H-pyrazol-4-yl)-quinoxalin-2-yl]-amine hydrochloride] |
| < 0.1 | < 5 | < 20 | OCCN(Cc1ccccc1)c1cnc2cc(-c3cn[nH]c3)ccc2n1 [Example 3, 2-{Benzyl-[6-(1H-pyrazol-4-yl)-quinoxalin-2-yl]-amino}-ethanol] |
